Where two headings read alike, the source gives them in different places.
Tests used:
[1] = molecular target: MCH-1R (UniProt Q99705); experiment: MCH-1R competition binding assay
Description: In vitro binding and function assays are performed on membranes derived from cells or tissues expressing endogenous MCH1R. Competition binding assays are performed to identify high affinity compounds. Briefly, either radiolabeled or europium labeled MCH with varying concentrations of competitor compound which are incubated with membranes expressing the receptor. Rat brain membrane or cell lines, including but not limited to human Kelly neuroblastoma cells, A-431 epidermoid cells, and rat PC-12 cells are known to express endogenous MCH1R and are used in the assay. Binding is allowed to proceed until equilibrium is reached then bound labeled MCH is separated from free MCH by capturing membranes onto a filter. The filters are washed to remove loosely associated MCH and labeled MCH is quantified. Data is analyzed and IC50 and Ki are calculated to determine compound affinity.

[2] = molecular target: T1, 5-HT2c receptor (Homo sapiens, UniProt P28335); experiment: 5-HT2c receptor binding assay (3H-mesulergine competition)
T1 construct: purchased Perkin-Elmer or Euroscreen (named only as possible suppliers)
T1 sequence (P28335 33-458): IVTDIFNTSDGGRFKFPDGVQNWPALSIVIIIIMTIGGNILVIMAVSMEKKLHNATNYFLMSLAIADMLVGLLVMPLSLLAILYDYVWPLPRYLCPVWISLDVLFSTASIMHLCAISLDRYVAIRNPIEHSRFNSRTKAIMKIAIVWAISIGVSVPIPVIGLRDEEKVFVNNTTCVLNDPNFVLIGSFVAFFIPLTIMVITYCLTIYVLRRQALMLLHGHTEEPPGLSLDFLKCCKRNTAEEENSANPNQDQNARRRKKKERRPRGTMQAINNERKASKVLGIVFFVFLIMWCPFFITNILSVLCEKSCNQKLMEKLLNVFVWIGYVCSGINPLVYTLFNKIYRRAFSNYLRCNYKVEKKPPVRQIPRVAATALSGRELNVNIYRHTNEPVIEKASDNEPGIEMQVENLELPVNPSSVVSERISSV
Description: MCH antagonist compounds are evaluated for binding to the serotonin 5-HT2c receptor to determine receptor selectivity. Binding activity is assessed using a competitive assay with ^3H-mesulergine (Perkin Elmer), a 5-HT2c selective ligand, on membrane containing the 5-HT2c receptor. Briefly, 1 nM ^3H-mesulergine and varying concentrations of the compound are incubated with 5-HT2c receptor membranes, following an incubation period, the membranes are washed and ^3H-mesulergine bound to membranes is measured in a liquid scintillation counter. The amount of bound ^3H-mesulergine at the varying concentration of competitor compound is used to derive the affinity (Ki) of the compound for the 5-HT2c receptor. 5-HT2c receptor containing membranes are readily available from several companies including Perkin-Elmer and Euroscreen.

[3] = 1 nM 3H-mesulergine, read-out: Ki (nM) binding data 5-HT2C

| Ki [1] [nM] | Ki [2, 3] [nM] | Compound | Ki [2] [nM] |
| --- | --- | --- | --- |
| 369 | > 100000 | CC(=O)N1CCN(Cc2ccc3c(c2)CC[C@H](n2cnc4cc(-c5cc(F)cc(F)c5)sc4c2=O)C3)CC1 [(S)-3-[6-(4-Acetylpiperazin-1-ymethyl)-1,2,3,4-tetrahydronapthalen-2-yl]-6-(3,5-difluorophenyl)thieno[3,2-d]pyrimidin-4(3H)-one] | – |
| 17.9 | > 100000 | CC(=O)N1CCN(Cc2ccc3c(c2)CC[C@H](n2cnc4cc(-c5cccc(F)c5)sc4c2=O)C3)CC1 [(S)-3-[6-(4-Acetylpiperazin-1-ymethyl)-1,2,3,4-tetrahydronapthalen-2-yl]-6-(3-fluorophenyl)thieno[3,2-d]pyrimidin-4-(3H)one] | – |
| 9.4 | 6360 | CC(=O)N1CCN(Cc2ccc3c(c2)CC[C@H](n2cnc4cc(-c5ccc(F)cc5)sc4c2=O)C3)CC1 [(S)-3-[6-(4-Acetylpiperazin-1-ymethyl)-1,2,3,4-tetrahydronapthalen-2-yl]-6-(4-fluorophenyl)thieno[3,2-d]pyrimidin-4(3H)-one] | – |
| 65.2 | > 100000 | COc1ccc(-c2cc3ncn([C@H]4CCc5cc(CN6CCN(C(C)=O)CC6)ccc5C4)c(=O)c3s2)cc1 [(S)-3-[6-(4-Acetylpiperazin-1-ymethyl)-1,2,3,4-tetrahydronapthalen-2-yl]-6-(4-methoxyphenyl)thieno[3,2-d]pyrimidin-4(3H)-one] | – |
| 16.1 | 5460 | CC(=O)N1CCN(Cc2ccc3c(c2)CC[C@H](n2cnc4cc(-c5ccc(C)cc5)sc4c2=O)C3)CC1 [(S)-3-[6-(4-Acetylpiperazin-1-ymethyl)-1,2,3,4-tetrahydronapthalen-2-yl]-6-(4-methylphenyl)thieno[3,2-d]pyrimidin-4(3H)-one] | – |
| 38 | > 100000 | CC(=O)N1CCN(Cc2ccc3c(c2)CC[C@H](n2cnc4cc(-c5cncc(Cl)c5)sc4c2=O)C3)CC1 [(S)-3-[6-(4-Acetylpiperazin-1-ymethyl)-1,2,3,4-tetrahydronapthalen-2-yl]-6-(5-chloropyridin-3-yl)thieno[3,2-d]pyrimidin-4(3H)-one] | – |
| 97 | > 100000 | CC(=O)N1CCN(Cc2ccc3c(c2)CC[C@H](n2cnc4cc(-c5cncc(F)c5)sc4c2=O)C3)CC1 [(S)-3-[6-(4-Acetylpiperazin-1-ymethyl)-1,2,3,4-tetrahydronapthalen-2-yl]-6-(5-fluoropyridin-3-yl)thieno[3,2-d]pyrimidin-4(3H)-one] | – |
| 1930 | > 100000 | CC(=O)N1CCN(Cc2ccc3c(c2)CC[C@H](n2cnc4cc(-c5cccnc5)sc4c2=O)C3)CC1 [(S)-3-[6-(4-Acetylpiperazin-1-ymethyl)-1,2,3,4-tetrahydronapthalen-2-yl]-6-(pyridin-3-yl)thieno[3,2-d]pyrimidin-4(3H)-one] | – |
| 988 | 8090 | CC(=O)N1CCN(Cc2ccc3c(c2)CC[C@H](n2cnc4cc(-c5ccncc5)sc4c2=O)C3)CC1 [(S)-3-[6-(4-Acetylpiperazin-1-ymethyl)-1,2,3,4-tetrahydronapthalen-2-yl]-6-(pyridin-4-yl)thieno[3,2-d]pyrimidin-4(3H)-one] | – |
| 270 | 1760 | CC(=O)N1CCN(Cc2ccc3c(c2)CC[C@H](n2cnc4cc(-c5cccs5)sc4c2=O)C3)CC1 [(S)-3-[6-(4-Acetylpiperazin-1-ymethyl)-1,2,3,4-tetrahydronapthalen-2-yl]-6-(thien-2-yl)thieno[3,2-d]pyrimidin-4(3H)-one] | – |
| 137 | 2010 | CC(=O)N1CCN(Cc2ccc3c(c2)CC[C@H](n2cnc4cc(-c5ccsc5)sc4c2=O)C3)CC1 [(S)-3-[6-(4-Acetylpiperazin-1-ymethyl)-1,2,3,4-tetrahydronapthalen-2-yl]-6-(thien-3-yl)thieno[3,2-d]pyrimidin-4(3H)-one] | – |
| 70.5 | > 100000 | CC(=O)N1CCN(Cc2ccc3c(c2)CC[C@H](n2cnc4cc(-c5cccc(Cl)c5)sc4c2=O)C3)CC1 [(S)-3-[6-(4-Acetylpiperazin-l-ymethyl)-1,2,3,4-tetrahydronapthalen-2-yl]-6-(3-chlorophenyl)thieno[3,2-d]pyrimidin-4(3H)-one] | – |
| 397 | > 100000 | CC(=O)N1CCN(Cc2ccc3c(c2)CC[C@H](n2cnc4cc(-c5ccc(C#N)cc5)sc4c2=O)C3)CC1 [(S)-4-(3-(6-((4-acetylpiperazin-1-yl)methyl)-1,2,3,4-tetrahy] [(S)-4-(3-(6-((4-acetylpiperazin-1-yl)methyl)-1,2,3,4-tetrahydronaphthalen-2-yl)-4-oxo-3,4-dihydrothieno[3,2-d]pyrimidin-6-yl)benzonitrile] | – |
| 65 | > 100000 | CS(=O)(=O)N1CCN(Cc2ccc3c(c2)CC[C@H](n2cnc4cc(-c5ccc(Cl)cc5)sc4c2=O)C3)CC1 [(S)-6-(4-Chlorophenyl)-3-(6-((4-methylsulfonyl)piperazin-1-yl)methyl)-1,2,3,4-tetrahydronapthalen-2-yl)thieno[3,2,-d]pyrimidin-4(3H)-one] | – |
| 24.3 | 3730 | O=c1c2sc(-c3ccc(Cl)cc3)cc2ncn1[C@H]1CCc2cc(CN3CCCCC3)ccc2C1 [(S)-6-(4-Chlorophenyl)-3-(6-piperidin-1-ylmethyl-1,2,3,4-tetrahydronaphthalen-2-yl)thieno[3,2-d]pyrimidin-4(3H)-one] | – |
| 13.7 | 3730 | O=c1c2sc(-c3ccc(Cl)cc3)cc2ncn1[C@H]1CCc2cc(CN3CCCC3)ccc2C1 [(S)-6-(4-Chlorophenyl)-3-(6-pyrrolidin-1-ylmethyl-1,2,3,4-tetrahydronaphthalen-2-yl)thieno[3,2-d]pyrimidin-4(3H)-one] | – |
| 42 | 4790 | CN1CCN(C2CCN(Cc3ccc4c(c3)CC[C@H](n3cnc5cc(-c6ccc(Cl)cc6)sc5c3=O)C4)CC2)CC1 [(S)-6-(4-Chlorophenyl)-3-(6-{[4-(4-methylpiperazin-1-yl)piperidin-1-yl]methyl}-1,2,3,4-tetrahydronapthalen-2-yl)thieno[3,2-d]pyrimidin-4(3H)-one] | – |
| 1020 | > 100000 | O=c1c2sc(-c3ccc(Cl)cc3)cc2ncn1[C@H]1CCc2cc(CN3CCS(=O)(=O)CC3)ccc2C1 [(S)-6-(4-Chlorophenyl)-3-[6-(1,1-dioxo-1λ^6-thiomorpholin-4-ylmethyl)-1,2,3,4-tetrahydronaphthalen-2-yl)thieno[3,2-d]pyrimidin-4(3H)-one] | – |
| 1.8 | > 100000 | CC(=O)N1CC2CC1CN2Cc1ccc2c(c1)CC[C@H](n1cnc3cc(-c4ccc(Cl)cc4)sc3c1=O)C2 (stereo partly drawn) [(S)-6-(4-Chlorophenyl)-3-[6-(5-acetyl-2,5-diaza-bicyclo[2.2.1]hept-2-ylmethyl)-1,2,3,4-tetrahydronaphthalen-2-yl)thieno[3,2-d]pyrimidin-4(3H)-one] | – |
| 103 | > 100000 | O=c1c2sc(-c3ccc(Cl)cc3)cc2ncn1[C@H]1CCc2cc(CN3CCOCC3)ccc2C1 [(S)-6-(4-Chlorophenyl)-3-[6-(morpholinomethyl)-1,2,3,4-tetrahydronapthalene-2-yl]thieno[3,2-d]pyrimidin-4-(3H)-one] | – |
| 16 | > 100000 | (S)-6-(4-Chlorophenyl)-3-(6-((4-morpholinopiperidin-1-yl)methyl)-1,2,3,4-tetrhaydronapthalene-2-yl)thieno[3,2,-d]pyrimidin-4-(3H)-one | – |

| Compound | Ki [1] [nM] | Ki [2, 3] [nM] | Ki [2] [nM] |
| --- | --- | --- | --- |
| CCN(CC)Cc1ccc2c(c1)CC[C@H](n1cnc3cc(-c4ccc(Cl)cc4)sc3c1=O)C2 [(S)-6-(4-Chlorophenyl)-3-(6-diethylaminomethyl-1,2,3,4-tetrahydronaphthalen-2-yl)-4a,7a-dihydro-3H-thieno[3,2-d]pyrimidin-4-one] | 13 | – | 6780 |
